Measurements: publication PMC12591484 (PLOS One, 2025)

What was measured:
Assay in all cases: Effects of cysteine modification with pCMBS on Low/High GABA response ratio
Format in all cases: cell-based
[1] = molecular target: T1, α1β3M286Cγ2L GABAA receptors (Homo sapiens, UniProt P14867+P18507+P28472, M311C); conditions: post- to pre-modification Low/High GABA response ratio
T1 construct: expressed in transfected cells; host or cells: Xenopus oocytes injected with capped mRNA, 1α:1β:5γ
Method: (§1) The pCMBS exposure was calculated as concentration × time (e.g. 100 μM × 30 s = 3000 µM × s). […] The pCMBS exposures were varied to generate modification ratio vs. pCMBS exposure curves. Each oocyte was studied at a single pCMBS exposure condition. For each cysteine mutant, 5 oocytes were studied at 4 to 7 pCMBS exposure conditions. The modification ratio vs. pCMBS exposure curves were fit with mono-phasic or bi-phasic logistic equations similar to Eq 1, using non-linear least squares.

[2] = molecular target: T2, α1β3γ2L246C GABAA receptors (Homo sapiens, UniProt P14867+P18507+P28472, L285C); conditions: post- to pre-modification Low/High GABA response ratio
T2 construct: expressed in transfected cells; host or cells: Xenopus oocytes injected with capped mRNAs mixed 1α:1β:5γ
T2 sequence (P18507 40-475 L285C, one chain of several): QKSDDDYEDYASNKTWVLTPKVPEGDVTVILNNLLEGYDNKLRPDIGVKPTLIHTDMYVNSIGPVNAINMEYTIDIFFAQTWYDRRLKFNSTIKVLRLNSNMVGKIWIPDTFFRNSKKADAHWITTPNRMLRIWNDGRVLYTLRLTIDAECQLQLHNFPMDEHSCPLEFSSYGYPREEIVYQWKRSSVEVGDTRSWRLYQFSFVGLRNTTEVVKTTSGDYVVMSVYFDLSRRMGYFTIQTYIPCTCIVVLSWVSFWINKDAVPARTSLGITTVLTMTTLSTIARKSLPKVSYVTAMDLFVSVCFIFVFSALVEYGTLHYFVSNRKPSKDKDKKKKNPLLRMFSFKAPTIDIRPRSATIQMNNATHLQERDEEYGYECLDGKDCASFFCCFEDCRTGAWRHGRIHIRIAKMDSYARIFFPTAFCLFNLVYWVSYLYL
Method: as §1

[3] = molecular target: T3, α1S270Cβ3γ2L GABAA receptors (Homo sapiens, UniProt P14867+P18507+P28472, S297C)
T3 construct: expressed in transfected cells; host or cells: Xenopus oocytes injected with capped mRNA, 1α:1β:5γ
T3 sequence (P14867 28-456 S297C, one chain of several): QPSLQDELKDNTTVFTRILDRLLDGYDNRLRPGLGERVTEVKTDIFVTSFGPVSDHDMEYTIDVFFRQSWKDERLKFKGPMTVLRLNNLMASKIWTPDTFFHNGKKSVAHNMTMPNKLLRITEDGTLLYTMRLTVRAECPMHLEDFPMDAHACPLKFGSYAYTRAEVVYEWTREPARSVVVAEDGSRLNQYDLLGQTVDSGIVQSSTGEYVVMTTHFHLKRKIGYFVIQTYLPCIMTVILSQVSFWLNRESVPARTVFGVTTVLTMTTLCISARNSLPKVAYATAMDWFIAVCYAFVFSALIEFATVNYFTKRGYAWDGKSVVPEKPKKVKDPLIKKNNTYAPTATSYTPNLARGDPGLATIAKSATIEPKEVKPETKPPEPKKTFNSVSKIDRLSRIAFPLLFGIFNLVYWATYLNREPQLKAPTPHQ
T3 sequence (P18507 40-475, one chain of several): as the sequence (P18507 40-475 L285C, one chain of several) above, with C246L counted along it
Method: as §1

[4] = molecular target: T4, α1β3γ2S301C GABAA receptors (Homo sapiens, UniProt P14867+P18507+P28472, S340C); conditions: post- to pre-modification Low/High GABA response ratio
T4 construct: expressed in transfected cells; host or cells: Xenopus oocytes injected with capped mRNAs mixed 1α:1β:5γ
T4 sequence (P14867 28-456): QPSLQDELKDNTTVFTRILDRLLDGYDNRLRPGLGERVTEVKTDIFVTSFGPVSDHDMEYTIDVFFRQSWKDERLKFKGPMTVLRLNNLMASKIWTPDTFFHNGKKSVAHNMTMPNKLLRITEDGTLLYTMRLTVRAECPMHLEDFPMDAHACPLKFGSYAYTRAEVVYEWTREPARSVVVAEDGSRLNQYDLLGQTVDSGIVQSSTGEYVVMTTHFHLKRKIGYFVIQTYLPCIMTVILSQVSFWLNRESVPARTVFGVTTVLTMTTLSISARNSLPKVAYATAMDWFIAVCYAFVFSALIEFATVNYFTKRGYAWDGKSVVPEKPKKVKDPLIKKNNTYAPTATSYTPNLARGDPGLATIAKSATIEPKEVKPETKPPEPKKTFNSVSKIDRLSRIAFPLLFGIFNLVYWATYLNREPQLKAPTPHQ
T4 sequence (P28472 26-473): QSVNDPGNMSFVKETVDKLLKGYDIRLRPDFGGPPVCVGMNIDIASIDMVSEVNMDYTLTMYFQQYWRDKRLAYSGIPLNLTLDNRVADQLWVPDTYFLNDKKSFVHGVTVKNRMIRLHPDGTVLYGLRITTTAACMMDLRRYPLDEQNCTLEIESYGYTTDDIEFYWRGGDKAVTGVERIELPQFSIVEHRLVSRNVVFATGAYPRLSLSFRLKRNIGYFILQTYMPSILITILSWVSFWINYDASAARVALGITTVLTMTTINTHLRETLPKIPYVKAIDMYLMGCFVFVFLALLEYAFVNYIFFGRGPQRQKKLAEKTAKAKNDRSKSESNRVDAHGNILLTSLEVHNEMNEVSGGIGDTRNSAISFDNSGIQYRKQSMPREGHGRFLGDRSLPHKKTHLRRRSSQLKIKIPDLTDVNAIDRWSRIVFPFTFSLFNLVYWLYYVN
T4 sequence (P18507 40-475 S340C): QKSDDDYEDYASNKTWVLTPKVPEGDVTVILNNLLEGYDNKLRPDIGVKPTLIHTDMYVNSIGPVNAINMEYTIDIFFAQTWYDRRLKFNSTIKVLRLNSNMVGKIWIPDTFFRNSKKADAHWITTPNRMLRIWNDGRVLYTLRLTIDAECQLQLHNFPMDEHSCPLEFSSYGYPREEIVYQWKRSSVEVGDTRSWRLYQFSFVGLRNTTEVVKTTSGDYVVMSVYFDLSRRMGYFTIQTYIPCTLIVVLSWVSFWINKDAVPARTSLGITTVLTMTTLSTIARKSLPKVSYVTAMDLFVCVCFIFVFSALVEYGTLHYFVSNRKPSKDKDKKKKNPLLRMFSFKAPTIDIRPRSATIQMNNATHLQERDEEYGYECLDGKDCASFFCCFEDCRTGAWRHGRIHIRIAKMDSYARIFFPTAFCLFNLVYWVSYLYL
Method: as §1

[5] = molecular target: T5, α1β3γ2I242C GABAA receptors (Homo sapiens, UniProt P14867+P18507+P28472, I281C); conditions: post- to pre-modification Low/High GABA response ratio
T5 construct: expressed in transfected cells; host or cells: Xenopus oocytes injected with capped mRNAs mixed 1α:1β:5γ
T5 sequence (P18507 40-475 I281C, one chain of several): as the sequence (P18507 40-475 L285C, one chain of several) above, with I242C, C246L counted along it
Method: as §1

[6] = molecular target: T6, α1β3L231Cγ2L GABAA receptors (Homo sapiens, UniProt P14867+P18507+P28472, L256C); conditions: post- to pre-modification Low/High GABA response ratio
T6 construct: expressed in transfected cells; host or cells: Xenopus oocytes injected with capped mRNA, 1α:1β:5γ
T6 sequence (P28472 26-473 L256C, one chain of several): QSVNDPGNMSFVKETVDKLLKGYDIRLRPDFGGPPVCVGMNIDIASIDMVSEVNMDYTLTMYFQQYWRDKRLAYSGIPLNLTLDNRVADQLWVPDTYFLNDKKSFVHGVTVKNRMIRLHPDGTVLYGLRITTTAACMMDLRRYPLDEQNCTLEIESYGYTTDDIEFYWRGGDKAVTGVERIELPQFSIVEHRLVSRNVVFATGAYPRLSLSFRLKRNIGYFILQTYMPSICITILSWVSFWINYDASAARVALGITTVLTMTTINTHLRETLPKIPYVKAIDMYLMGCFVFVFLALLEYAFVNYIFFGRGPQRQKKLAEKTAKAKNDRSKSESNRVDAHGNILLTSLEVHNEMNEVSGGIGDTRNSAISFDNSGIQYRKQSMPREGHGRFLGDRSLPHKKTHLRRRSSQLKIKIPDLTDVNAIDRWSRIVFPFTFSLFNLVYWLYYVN
T6 sequence (P18507 40-475, one chain of several): as the sequence (P18507 40-475 L285C, one chain of several) above, with C246L counted along it
Method: as §1

[7] = molecular target: T7, α1M236Cβ3γ2L GABAA receptors (Homo sapiens, UniProt P14867+P18507+P28472, M263C); conditions: post- to pre-modification Low/High GABA response ratio
T7 construct: expressed in transfected cells; host or cells: Xenopus oocytes injected with capped mRNA, 1α:1β:5γ
T7 sequence (P14867 28-456 M263C, one chain of several): as the sequence (P14867 28-456 S297C, one chain of several) above, with M236C, C270S counted along it
T7 sequence (P18507 40-475, one chain of several): as the sequence (P18507 40-475 L285C, one chain of several) above, with C246L counted along it
Method: as §1

[8] = molecular target: T8, α1A291Cβ3γ2L GABAA receptors (Homo sapiens, UniProt P14867+P18507+P28472, A318C)
T8 construct: expressed in transfected cells; host or cells: Xenopus oocytes injected with capped mRNA, 1α:1β:5γ
T8 sequence (P14867 28-456 A318C, one chain of several): as the sequence (P14867 28-456 S297C, one chain of several) above, with C270S, A291C counted along it
T8 sequence (P18507 40-475, one chain of several): as the sequence (P18507 40-475 L285C, one chain of several) above, with C246L counted along it
Method: as §1

T1 sequence (P28472 26-473 M311C, one chain of several): as the sequence (P28472 26-473 L256C, one chain of several) above, with C231L, M286C counted along it
T1 sequence (P18507 40-475, one chain of several): as the sequence (P18507 40-475 L285C, one chain of several) above, with C246L counted along it

In the case of `O=S(=O)([O-])c1cc[c]([Hg][Cl])cc1.[Na+]` [pCMBS, para-chloromercuribenzenesulfonic acid sodium salt], the “Maximal pCMBS Modification Ratio Mean ± SD” value [1] is reported as 9 ± 3.1, the “Maximal pCMBS Modification Ratio Mean ± SD” value [2] is reported as 5 ± 1.0 and the “pCMBS exposure with maximum effect on modification ratio” value ([3]; α1S270C, biphasic effect of increasing pCMBS exposure) is reported as 300 µM x s. The “Maximal pCMBS Modification Ratio Mean ± SD” value ([3]; α1S270Cβ3γ2L, post- to pre-modification Low/High GABA response ratio, biphasic) was 11.8 ± 0.77, the “Maximal pCMBS Modification Ratio Mean ± SD” value [4] was 5.3 ± 0.23 and the “Maximal pCMBS Modification Ratio Mean ± SD” value [5] was 17 ± 4.9. The “Maximal pCMBS Modification Ratio Mean ± SD” value [6] was 13 ± 1.3, the “Maximal pCMBS Modification Ratio Mean ± SD” value [7] was 13 ± 1.4 and the “modification ratio, control modification, single oocyte example (Fig 2A)” value ([8]; 3 mM GABA + 10 µM pCMBS for 90 s) was 4.0. For the same molecule, the “Maximal pCMBS Modification Ratio Mean ± SD” value ([8]; post- to pre-modification Low/High GABA response ratio) was 4.7 ± 0.61.
